The results in this text go back to patent publication US20050165070A1, “Compositions with a biostimulating activity” (priority 2002, published 2005).

The test system of one test is courgettes cv. Diamone. The experiment in a line: Biostimulating activity on transplanted courgette seedlings in field, fruit yield. The test is classed as in vivo. The note with it: for Fruit per lot: treatment repeated every 10 days, harvest June 11-August 27, average per lot; for Increase (%) of fruit per lot: with respect to non-treated Thesis F. An excerpt:
The following examples are provided for merely illustrative purpose and in no way intend to limit the scope of the present invention.
When the biological activity experimentally found is higher than the value of E, said activity should be considered as a synergic effect.
An amount of 50 g of each compound under examination (thiazolidine-4-carboxylic acid (compound I) and N-acyl-thiazolidine-4-carboxylic acid (compound II)) were dispersed in water (800 cc) and vigorously stirred. An excess of 5%, with respect to the stoichiometric quantity, of sodium bicarbonate, was then added in portions. 150 g of a non-ionic surface-active agent were added to favour application to the leaves. The whole mixture was brought to a volume of 1 liter by the addition of water, in order to obtain solutions of each compound with a concentration of 50 g/liter.
Assessment of the biostimulating activity of compound (I), compound (II) and their synergic mixture.
Seedlings of courgettes cv. Diamone, sown and cultivated in a hot greenhouse, were transplanted in a field (May 11, Leggiuno, (Varese)—Italy).
The theses were randomly arranged in lots with four repetitions for each thesis. Each lot consisted of six plants in rows situated at a distance of 1 meter from each other, and at a distance of 1 meter from each other in the same row.
Weeding was performed before the transplant, using 1 kg/ha of trifluralin (volume 550 l/ha).
At the moment transplanting, the seedlings have a common degree of vegetative development.
In order to minimize transplant stress, the seedlings planted were treated respectively with: • Thesis A: with compound (I) (ATC) at a dose of 5 g/hl; • Thesis B: with compound (I) (ATC) at a dose of 10 g/hl; • Thesis C: with compound (II) (AATC) at a dose of 5 g/hl; • Thesis D: with compound (II) (AATC) at a dose of 10 g/hl; • Thesis E: with compound (I) (ATC) at a dose of 5 g/hl in a mixture with compound (II) (AATC) at a dose of 5 g/hl; • Thesis F: no biostimulating treatment.
Said treatment was subsequently repeated every 10 days, in a preventive manner, in order to oppose any possible thermal or water stress or stress due to vegetative development. Harvesting was effected from June 11 to August 27, and the yield increases indicated in Table 1, were registered in the treated theses (A, B, C, D, E), with respect to the non-treated Thesis F. The yields are obtained from the average amount of fruit obtained in each lot during the above-mentioned harvesting period (June 11-August 27).

The subject of a further test is peppers cv. Pathos. The experiment in a line: Biostimulating effect on transplanted pepper seedlings in tunnel, production yield. The test is classed as in vivo. The note with it: 10 g/hl; for Berries kg per lot: repeated every 10 days, harvest July 29-August 29; for Increase (%) of berries kg per lot: versus not treated Thesis E. An excerpt: The whole mixture was brought to a volume of 1 liter by the addition of water, in order to obtain solutions of each compound with a concentration of 50 g/liter. Determination of the amplification of the biostimulating effect obtained by applying compound (I) in the presence of a solution of proline. Seedlings of peppers cv. Pathos were transplanted in a tunnel (April 16, AT). The lots were distributed according to the random block scheme with 5 repetitions per thesis. Each repetition consisted of 15 plants. At the moment of transplanting, the seedlings have a common degree of vegetative development. […] Said treatment was subsequently repeated every 10 days, in a preventive manner, in order to oppose any possible thermal or water stress or stress due to vegetative development. Harvesting was effected from July 29 for the following 30 days, and a production increase was registered in theses B and D, with respect to theses A and C, as indicated in Table 2. The yields are obtained from the average production obtained during the above harvesting period (July 29-August 29).

With `CC(=O)N1CSCC1C(=O)O` (stereo not drawn) [AATC, N-acetylthiazolidine-4-carboxylic acid], in the test with courgettes cv. Diamone (5 g/hl), the Fruit per lot was determined as 102 and the “Increase (%) of fruit per lot” value is listed as “+5.2%”. In the test on courgettes cv. Diamone (10 g/hl), the Fruit per lot came out at 109 and the “Increase (%) of fruit per lot” value was “+12.4%”. Besides, in the test on peppers cv. Pathos, the “Berries kg per lot” value came out at 26.40 kg per lot and the “Increase (%) of berries kg per lot” value is reported as “+6.9%”.
Consider `O=C(O)[C@@H]1CSCN1` [ATC, R-(−)-thiazolidine-4-carboxylic acid], for which, in the test with courgettes cv. Diamone (5 g/hl), the Fruit per lot turned out to be 100 and the “Increase (%) of fruit per lot” value is “+3.1%”. Further, in the test on courgettes cv. Diamone (10 g/hl), the Fruit per lot worked out at 105 and the “Increase (%) of fruit per lot” value is listed as “+8.2%”. In addition, in the test on peppers cv. Pathos, the “Berries kg per lot” value was 25.80 kg per lot and the “Increase (%) of berries kg per lot” value is recorded as “+4.5%”.
